According to PMC9000575, “Solution Equilibrium Studies on Salicylidene Aminoguanidine Schiff Base Metal Complexes: Impact of the Hybridization with L-Proline on Stability, Redox Activity and Cytotoxicity” (Molecules, 2022):
Where two headings read alike, the source gives them in different places.

Assays:
[1] = test system: Colo-205 human colon adenocarcinoma cells; test: MTT cytotoxicity test; format: cell-based; details: Colo-205, 72 h
Description: (§1) All cell culture reagents were obtained from Sigma-Aldrich and plastic ware from Sarstedt (Nümbrecht, Germany). Human colon Colo-205 (chemo-sensitive) and Colo-320 (doxorubicin-resistant) adenocarcinoma and MRC-5 human embryonal lung fibroblast cell lines were purchased from LGC Promochem, Teddington, UK. The colon adenocarcinoma cells were cultured in Roswell Park Memorial Institute (RPMI) 1640 medium supplemented with 10% heat-inactivated fetal bovine serum, 2 mM L-glutamine, 1 mM sodium pyruvate and 100 mM HEPES. The MRC-5 cell line was cultured in Eagle’s Minimal Essential Medium (EMEM, Sigma-Aldrich, St. Louis, MO, USA) supplemented with a non-essential amino acid (NEAA) mixture (Sigma-Aldrich, St. Louis, MO, USA) a selection of vitamins, 10% heat-inactivated foetal bovine serum (FBS), 2 mM L-glutamine (Sigma-Aldrich, St. Louis, MO, USA), 1 mM Na-pyruvate (Sigma-Aldrich, St. Louis, MO, USA), nystatin (Sigma-Aldrich, St. Louis, MO, USA) and a penicillin-streptomycin mixture (Sigma-Aldrich, St. Louis, MO, USA) in concentrations of 100 U/L and 10 mg/L, respectively. The cells were incubated at 37 °C, in a 5% CO2, 95% air atmosphere. All cell lines were detached with Trypsin-Versene® (EDTA) solution for 5 min at 37 °C.
(§2) The tested compounds were dissolved in 90% (v/v) DMSO/H2O using 8 mM concentration, […] in the final samples the DMSO content was always lower than 1%. Then stock solutions were diluted in complete culture medium, and two-fold serial dilutions of compounds were prepared in 100 μL of the medium, horizontally. The semi-adherent colon adenocarcinoma cells were treated with Trypsin-Versene (EDTA) solution. They were adjusted to a density of 1 × 10^4 cells in 100 μL of RPMI 1640 or EMEM medium and were added to each well, with the exception of the medium control wells. The final volume of the wells containing compounds and cells was 200 μL. The plates containing Colo-205, Colo-320 or MRC-5 cells were incubated at 37 °C for 72 h; at the end of the incubation period, 20 μL of MTT solution (from a stock solution of 5 mg/mL) were added to each well. After incubation at 37 °C for 4 h, 100 μL of SDS solution (10% in 0.01 M HCI) were added to each well, and the plates were further incubated at 37 °C overnight. Cell growth was determined by measuring the optical density (OD) at 540/630 nm with a Multiskan EX plate reader (Thermo Labsystems, Cheshire, WA, USA). Inhibition of the cell growth (expressed as IC50: inhibitory concentration that reduces by 50% the growth of the cells exposed to the tested compounds) was determined from the sigmoid curve where 100 − ((ODsample − ODmedium control)/(ODcell control − ODmedium control)) × 100 values were plotted against the logarithm of compound concentrations. Curves were fitted by GraphPad Prism software (2021, Graphpad Software, San Diego, CA, USA) using the sigmoidal dose–response model (comparing variable and fixed slopes). The IC50 values were obtained from at least three independent experiments.

[2] = test system: Colo-320 (doxorubicin-resistant) human colon adenocarcinoma cells; test: MTT cytotoxicity test; format: cell-based; details: Colo-320, 72 h
Description: as §1, §2

[3] = test system: MRC-5 human embryonal lung fibroblast cells; test: MTT cytotoxicity test; format: cell-based; details: MRC-5, 72 h
Description: as §1, §2

[4] = literature pKa values of analogous (thio)semicarbazones; format: physicochemical; details: from literature pKa values (refs 22, 23)
[5] = pH 7.4; cited from earlier work
[6] = 30% (v/v) DMSO/H2O; cited from earlier work
[7] = stability constants of Fe(II) complexes by pH-potentiometry; format: physicochemical; details: calculated at pH 7.4, cFe = 1 μM, cligand = 10 μM, from overall stability constants reported in Refs. 22, 27, 34
[8] = stability constants of Fe(III) complexes by pH-potentiometry; format: physicochemical; details: calculated at pH 7.4, cFe = 1 μM, cligand = 10 μM, from overall stability constants reported in Refs. 22, 27, 34
[9] = cited from earlier work
[10] = test system: Colo-205 human colon adenocarcinoma cells; set-up: method as in PMID 35287037; details: Colo-205, 72 h; cited from earlier work
[11] = test system: Colo-320 (doxorubicin-resistant) human colon adenocarcinoma cells; set-up: method as in PMID 35287037; details: Colo-320, 72 h; cited from earlier work
[12] = test system: MRC-5 human embryonal lung fibroblast cells; set-up: method as in PMID 35287037; details: MRC-5, 72 h; cited from earlier work

Row | SMILES | IC50 [1] [µM] | IC50 [2] [µM] | IC50 [3] [µM] | fraction present in neutral form at pH 7.4 [4] [%] | logD7.4 [5] | pK1 [6] | pK2 [6] | pFe(II) (−log[Fe(II)]) [7] | pFe(III)* (−logΣ[Fe(III)i(OH)j]) [8] | E1/2 of the Fe(III)/Fe(II) redox couple of the iron complexes ([9]; STSC complexes, 'as it was found', no reference given) [V vs. NHE] | IC50 [10] [µM] | IC50 [11] [µM] | IC50 [12] [µM] | E1/2 of the Fe(III)/Fe(II) redox couple of the iron complexes [9]
1 | [Cl][Cu][Cl] [CuCl2, reference compound] | 44.1 ± 0.4 | 48.7 ± 0.4 | 43.9 ± 0.3 |  |  |  |  |  |  |  |  |  |  | 
2 | NC(=O)N/N=C/c1ccccc1O [SSC, salicylaldehyde semicarbazone] |  |  |  | 100 | +0.94 | 9.32 | > 12.8 |  |  |  |  |  |  | 
3 | NC(=S)N/N=C/c1ccccc1O [STSC, salicylaldehyde TSC] |  |  |  | 97 | +1.59 | 8.89 | 12.59 | 8.3 | 8.4 | −0.14 | 69.7 ± 1.9 | 52.2 ± 6.8 | 88 ± 19 | 
4 | NC(=S)NN=Cc1ncccc1N [Triapine, 3-aminopyridine-2-carbaldehyde thiosemicarbazone] |  |  |  |  |  |  |  | 11.6 | 7.3 |  | 3.28 ± 0.63 | 2.17 ± 0.15 | 31.4 ± 9.2 | +0.08 V vs. NHE
